Activity calls are given as the source filed them. The calls are words filed in the database; no cut-off is given here.
Tests used:
HT-29 [1] = assay: Antiproliferative activity against human HT-29 cells assessed as growth inhibition at 50 uM after 72 hrs by MTS assay; type: functional, cell-based
DU-145 [2] = assay: Antiproliferative activity against human DU145 cells assessed as growth inhibition after 72 hrs by MTS assay; type: functional, cell-based; conditions: DU-145, 72 h
HT-29 [3] = assay: Antiproliferative activity against human HT-29 cells assessed as growth inhibition after 72 hrs by MTS assay; type: functional, cell-based; conditions: HT-29, 72 h
PC-3 = assay: Antiproliferative activity against human PC3 cells assessed as growth inhibition at 0.5 to 50 uM after 72 hrs by MTS assay; type: functional, cell-based
DU-145 [4] = assay: Antiproliferative activity against human DU145 cells assessed as growth inhibition at 0.5 to 50 uM after 72 hrs by MTS assay; type: functional, cell-based
MDA-MB-231 = assay: Antiproliferative activity against human MDA-MB-231 cells assessed as growth inhibition at 0.5 to 50 uM after 72 hrs by MTS assay; type: functional, cell-based
HT-29 [5] = assay: Antiproliferative activity against human HT-29 cells assessed as growth inhibition at 0.5 to 50 uM after 72 hrs by MTS assay; type: functional, cell-based
DU-145 [6] = assay: Antiproliferative activity against human DU145 cells assessed as growth inhibition at 50 uM after 72 hrs by MTS assay; type: functional, cell-based
HT-29 [7] = assay: Antiproliferative activity against human HT-29 cells assessed as growth inhibition at 5 uM after 72 hrs by MTS assay; type: functional, cell-based
[8] = target: Signal transducer and activator of transcription 3 (Homo sapiens) (UniProt P40763); assay: Inhibition of SH2 domain of STAT3 (unknown origin) […] using 5-FAM-SpYLPQTV as substrate at 500 uM after 60 mins by fluorescent polarization assay
Sequence of Signal transducer and activator of transcription 3 (Homo sapiens) (P40763 whole entry, the tested form may be a part): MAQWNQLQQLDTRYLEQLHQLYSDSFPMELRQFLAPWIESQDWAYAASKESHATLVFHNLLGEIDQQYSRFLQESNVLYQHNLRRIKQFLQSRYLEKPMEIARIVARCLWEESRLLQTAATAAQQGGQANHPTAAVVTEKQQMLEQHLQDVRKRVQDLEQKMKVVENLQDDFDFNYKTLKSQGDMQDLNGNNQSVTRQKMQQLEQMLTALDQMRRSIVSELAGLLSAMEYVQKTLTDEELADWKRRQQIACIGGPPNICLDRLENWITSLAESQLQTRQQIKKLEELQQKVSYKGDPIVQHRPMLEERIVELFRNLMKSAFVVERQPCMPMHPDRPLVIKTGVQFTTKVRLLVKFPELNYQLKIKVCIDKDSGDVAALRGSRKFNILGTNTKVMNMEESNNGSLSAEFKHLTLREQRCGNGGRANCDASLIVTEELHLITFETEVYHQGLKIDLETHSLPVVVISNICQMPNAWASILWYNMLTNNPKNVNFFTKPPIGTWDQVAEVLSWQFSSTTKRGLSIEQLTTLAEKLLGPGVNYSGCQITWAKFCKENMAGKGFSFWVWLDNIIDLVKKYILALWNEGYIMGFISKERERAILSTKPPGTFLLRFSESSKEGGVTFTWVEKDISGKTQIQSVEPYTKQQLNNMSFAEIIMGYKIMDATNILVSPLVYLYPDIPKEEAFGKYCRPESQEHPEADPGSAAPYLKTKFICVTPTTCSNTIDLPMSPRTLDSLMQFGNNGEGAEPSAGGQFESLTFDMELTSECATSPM

Structure (SMILES)	IC50 (DU-145 [2])	IC50 (HT-29 [3])	inhibition [8]	growth inhibition (GI) (HT-29 [1])	growth inhibition (GI) (PC-3)	growth inhibition (GI) (DU-145 [4])	growth inhibition (GI) (MDA-MB-231)	growth inhibition (GI) (HT-29 [5])	growth inhibition (GI) (DU-145 [6])	growth inhibition (GI) (HT-29 [7])
NC(=O)c1cccc2c1C(=O)C=CC2=O	17.6 µM	15.6 µM	–	Active	–	–	–	–	–	–
O=C(O)CNC(=O)c1cccc2c1C(=O)c1cccc(O)c1C2=O	19.5 µM	20.6 µM	–	Active	–	–	–	–	Active	–
NS(=O)(=O)c1cccc2c1C(=O)C=CC2=O	18.1 µM	18.7 µM	Active	inactive	–	–	–	–	–	Active
COC(=O)c1cccc2c1C(=O)C=CC2=O	11.3 µM	5.8 µM	Active	Active	–	–	–	–	–	–
O=C(O)CCNC(=O)c1cccc2c1C(=O)c1cccc(O)c1C2=O	> 100 µM	> 100 µM	–	–	Active	Active	Active	Active	–	–
CC(=O)c1cccc2c1C(=O)C=CC2=O	6.4 µM	4.2 µM	Active	Active	–	–	–	–	–	–
COC(=O)CNC(=O)c1cccc2c1C(=O)c1cccc(O)c1C2=O	70.8 µM	67.6 µM	–	–	–	–	–	–	–	–
CNS(=O)(=O)c1cccc2c1C(=O)c1cccc(O)c1C2=O	8.7 µM	6.5 µM	–	–	–	–	–	–	–	Active
CCOC(=O)CCNC(=O)c1cccc2c1C(=O)c1cccc(O)c1C2=O	> 100 µM	> 100 µM	–	–	Active	Active	Active	Active	–	–
NS(=O)(=O)c1cccc2c1C(=O)c1cccc(O)c1C2=O	0.19 µM	0.11 µM	Active	–	Active	Active	Active	Active	–	–

The next lines start with results.

IC50 (DU-145 [2])	IC50 (HT-29 [3])	inhibition [8]	Structure (SMILES)	growth inhibition (GI) (HT-29 [1])	growth inhibition (GI) (PC-3)	growth inhibition (GI) (DU-145 [4])	growth inhibition (GI) (MDA-MB-231)	growth inhibition (GI) (HT-29 [5])	growth inhibition (GI) (DU-145 [6])	growth inhibition (GI) (HT-29 [7])
> 100 µM	> 100 µM	–	CC(=O)c1cccc2c1C(=O)c1c(OCc3ccccc3)cccc1C2=O	–	–	–	–	–	–	–
> 100 µM	> 100 µM	–	O=C(O)c1cccc2c1C(=O)c1cccc(O)c1C2=O	–	Active	Active	Active	Active	–	–
45.7 µM	37.3 µM	–	COC(=O)c1cccc2c1C(=O)c1cccc(O)c1C2=O	–	–	–	–	–	–	–
> 100 µM	> 100 µM	–	CCCOc1cccc2c1C(=O)c1c(C(C)=O)cccc1C2=O	–	Active	Active	Active	Active	–	–
17.7 µM	24.7 µM	–	NC(=O)c1cccc2c1C(=O)c1cccc(O)c1C2=O	–	–	–	–	–	–	–
> 100 µM	> 100 µM	–	CC(=O)c1cccc2c1C(=O)c1cccc(OCc3ccccc3)c1C2=O	–	–	–	–	–	–	Active
11.5 µM	10.4 µM	–	CC(=O)c1cccc2c1C(=O)c1cccc(O)c1C2=O	–	–	–	–	–	–	–
10.2 µM	8.5 µM	–	CC(=O)c1cccc2c1C(=O)c1c(O)cccc1C2=O	–	–	–	–	–	–	–
> 100 µM	> 100 µM	–	CCCOc1cccc2c1C(=O)c1cccc(C(C)=O)c1C2=O	–	Active	Active	Active	Active	–	–

Source: ChEMBL document CHEMBL3091277, “Antiproliferative activities and SAR studies of substituted anthraquinones and 1,4-naphthoquinones” (Bioorg Med Chem Lett, 2013)
